Measurements published in patent US8822468B2 (Novartis AG, priority 2008, dated 2014).

The compounds below were run against T1, cMET receptor tyrosine kinase (GST-cMET (969-1390)) (Homo sapiens, UniProt P08581) (assay: EPK cMET profiling assay (LanthaScreen TR-FRET antibody based kinase phosphorylation assay)). Settings: purified recombinant GST-cMET (969-1390), 2 μM ATP, 50 nM Fluorescein-PolyEAY, 60 minutes at room temperature; read-out: c-Met IC50.
T1 construct: made in house
Assay type: biochemical
Experimental: A number of compounds of the present invention were assayed in an antibody based kinase phosphorylation assay as follows.
EPK cMET Profiling Assay:
The EPK kinase assay for cMET receptor tyrosine kinase was developed, using the purified recombinant GST-fusion protein, containing the cytoplasmic domain of the enzyme. GST-cMET (969-1390) was purified by affinity chromatography.
The kinase assay is based on the LanthaScreen™ technology. LanthaScreen™ is the detection of Time-Resolved Fluorescence Resonance Energy Transfer (TR-FRET) using lanthanide chelates to measure interactions between various binding partners. In a TR-FRET kinase assay, a long-lifetime lanthanide donor species is conjugated to an antibody that specifically binds to a phosphorylated product of a kinase reaction that is labeled with a suitable acceptor fluorophore. This antibody-mediated interaction brings the lanthanide donor and the acceptor into proximity such that resonance energy transfer can take place, resulting in a detectible increase in the FRET signal.
The kinase reactions were performed in 384 well microtiter plates in a total reaction volume of 9.05 μL. The assay plates were prepared with 0.05 μL per well of test compound in the appropriate test concentration, as described under “preparation of compound dilutions”. The reactions were started by combining 4.5 μL of ATP solution with 4.5 μL of enzyme-substrate mix (consisting of kinase and substrate). The final concentrations in the kinase reactions were 35 mM Tris/HCl, 1 mM DTT, 0.025% Tween20, 10 μM sodium orthovanadate, 0.25% BSA, 0.6% DMSO, 10 mM MgCl2, 3 mM MnCl2, 2 μM ATP, 50 nM Fluorescein-PolyEAY, and 0.3 nM enzyme.
The reactions were incubated for 60 minutes at room temperature and stopped by adding 4.5 μL of stop buffer (50 mM EDTA, 0.04% NP40, 20 mM Tris/HCl).
Subsequently 4.5 μL of detection mix (50 mM Tris/HCl, 2 mM DTT, 0.05% Tween20, 20 μM sodium orthovanadate, 1% BSA, 1.72 μg/ml Tb-PY20 antibody) were added to the stopped reactions. After 30 minutes incubation at room temperature, the plates were measured in a BMG Pherastar fluorescence reader. The effect of compound on the enzymatic activity was in all assays obtained from the linear progress curves and determined from one reading (end point measurement).
Test compounds were dissolved in DMSO (10 mM) and transferred into 1.4 mL flat bottom or V-shaped Matrix tubes carrying a unique 2D matrix. The stock solutions were stored at −20° C. if not used immediately. For the test procedure the vials were defrosted and identified by a scanner whereby a working sheet was generated that guided the subsequent working steps.
Compound dilutions were made in 96 well plates. This format enabled the assay of maximally 40 individual test compounds at 8 concentrations (single points) including 4 reference compounds. The dilution protocol included the production of “pre-dilution plates”, “master plates” and “assay plates”.
Pre-dilution plates: 96 polypropylene well plates were used as pre-dilution plates. A total of 4 pre-dilution plates were prepared including 10 test compounds each on the plate positions A1-A10, one standard compound at A11 and one DMSO control at A12. All dilution steps were done on a HamiltonSTAR robot.
Master plates: 100 μL of individual compound dilutions including standard compound and controls of the 4 “pre-dilution plates” were transferred into a 384 “master plate” including the following concentrations 1,820, […], 182, 54.6, 18.2, 5.46, 1.82 and 0.546 μM, respectively in 90% of DMSO.
Assay plates: Identical “assay plates” were then prepared by pipetting 50 nL each of compound dilutions of the “master plates” into 384-well “assay plates” by means of a HummingBird 384-channel dispenser. These plates were used directly for the assay which was performed in a total volume of 9.05 μL. This led to a final compound concentration of 10, 3.0, 1.0, 0.3, 0.1, 0.03, 0.01 and 0.003 μM and a final DMSO concentration of 0.5% in the assay.

T1 sequence (P08581 969-1390): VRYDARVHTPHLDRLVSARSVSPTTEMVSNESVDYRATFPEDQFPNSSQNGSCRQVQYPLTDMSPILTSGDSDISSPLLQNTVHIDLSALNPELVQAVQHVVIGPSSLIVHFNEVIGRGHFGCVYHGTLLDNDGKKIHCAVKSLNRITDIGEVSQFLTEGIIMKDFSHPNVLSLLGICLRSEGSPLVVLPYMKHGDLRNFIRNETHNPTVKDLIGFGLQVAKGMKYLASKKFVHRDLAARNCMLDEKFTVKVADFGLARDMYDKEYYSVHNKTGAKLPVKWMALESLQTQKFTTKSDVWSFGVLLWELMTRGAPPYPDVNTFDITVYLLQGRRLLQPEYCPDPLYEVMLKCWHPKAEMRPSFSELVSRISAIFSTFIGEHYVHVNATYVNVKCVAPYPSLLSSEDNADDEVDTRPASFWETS

In order of rising IC50:
1. Cn1cc(-c2ccc3ncc(Cc4ccc5ncccc5c4Cl)n3n2)cn1 [Example 172, 5-Chloro-6-[6-(1-methyl-1H-pyrazol-4-yl)-imidazo[1,2-b]pyridazin-3-ylmethyl]-quinoline]  10 nM
2. C[C@@H](c1cc2cn[nH]c2cc1F)c1cnc2ccc(-c3cnn(C)c3)nn12 [Example 165, 3-[(S)-1-(6-Fluoro-1H-indazol-5-yl)-ethyl]-6-(1-methyl-1H-pyrazol-4-yl)-imidazo[1,2-b]pyridazine]  12 nM
3. O[C@H]1CCN(c2ccc3ncc(Cc4ccc5ncccc5c4)n3n2)C1 [Example 107, (S)-1-(3-Quinolin-6-ylmethyl-imidazo[1,2-b]pyridazin-6-yl)-pyrrolidin-3-ol]  20 nM
4. Fc1cc2ncccc2cc1Cc1cnc2ccc(-c3cn[nH]c3)nn12 [Example 251, 7-Fluoro-6-[6-(1H-pyrazol-4-yl)-imidazo[1,2-b]pyridazin-3-ylmethyl]-quinoline]  21 nM
5. CC(c1cc2cnn(C)c2cc1F)c1cnc2ccc(-c3cnn(C)c3)nn12 (racemic) [Example 278, (rac)-3-[1-(6-Fluoro-1-methyl-1H-indazol-5-yl)-ethyl]-6-(1-methyl-1H-pyrazol-4-yl)-imidazo[1,2-b]pyridazine]  21 nM
6. OCCn1cc(-c2ccc3ncc(Cc4ccc5ncccc5c4Cl)n3n2)cn1 [Example 226, 2-{4-[3-(5-Chloro-quinolin-6-ylmethyl)-imidazo[1,2-b]pyridazin-6-yl]-pyrazol-1-yl}-ethanol]  25 nM
7. CC(c1ccc2ncccc2c1Cl)c1cnc2ccc(-c3cnn(C4CCN(C)CC4)c3)nn12 (stereo not drawn) [Example 224, 5-Chloro-6-(1-{6-[1-(1-methyl-piperidin-4-yl)-1H-pyrazol-4-yl]-imidazo[1,2-b]pyridazin-3-yl}-ethyl)-quinoline]  28 nM
8. O=C1CN(c2ccc3ncc(Cc4ccc5ncccc5c4)n3n2)CCN1 [Example 102, 4-(3-Quinolin-6-ylmethyl-imidazo[1,2-b]pyridazin-6-yl)-piperazin-2-one]  38 nM
9. Fc1ccc(-c2ccc3ncc(Cc4ccc5ncccc5c4)n3n2)cc1 [Example 25, 6-[6-(4-Fluoro-phenyl)-imidazo[1,2-b]pyridazin-3-ylmethyl]-quinoline]  48 nM
10. Cn1cc(-c2ccc3ncc(Cc4ccc(O)cc4)n3n2)cn1 [Example 5, 4-[6-(1-Methyl-1H-pyrazol-4-yl)-imidazo[1,2-b]pyridazin-3-ylmethyl]-phenol]  53 nM
11. FC(F)(F)CNc1ccc2ncc(Cc3ccc4ncccc4c3)n2n1 [Example 114, (3-Quinolin-6-ylmethyl-imidazo[1,2-b]pyridazin-6-yl)-(2,2,2-trifluoro-ethyl)-amine]  56 nM
12. Fc1cc2ncccc2cc1Cc1cnc2ccc(-c3cnn(CCN4CCOCC4)c3)nn12 [Example 232, 7-Fluoro-6-{6-[1-(2-morpholin-4-yl-ethyl)-1H-pyrazol-4-yl]-imidazo[1,2-b]pyridazin-3-ylmethyl}-quinoline]  66 nM
13. Cc1nc2ccc(Cc3cnc4ccc(-c5cnn(C)c5)nn34)cc2s1 [Example 13, 3-(2-Methyl-benzothiazol-6-ylmethyl)-6-(1-methyl-1H-pyrazol-4-yl)-imidazo[1,2-b]pyridazine]  73.5 nM
14. CC(c1ccc2nccn2c1)c1cnc2ccc(Cl)nn12 (racemic) [Example 292, (rac)-6-Chloro-3-(1-imidazo[1,2-a]pyridin-6-yl-ethyl)-imidazo[1,2-b]pyridazine]  80 nM
15. Cn1cnc2ccc(Cc3cnc4ccc(-c5cnn(CCO)c5)nn34)cc21 [Example 217, 2-{4-[3-(3-Methyl-3H-benzoimidazol-5-ylmethyl)-imidazo[1,2-b]pyridazin-6-yl]-pyrazol-1-yl}-ethanol]  84 nM
16. CCn1cc(-c2ccc3ncc(Cc4cc5cccnc5cc4Cl)n3n2)cn1 [Example 242, 7-Chloro-6-[6-(1-ethyl-1H-pyrazol-4-yl)-imidazo[1,2-b]pyridazin-3-ylmethyl]-quinoline]  86 nM
17. c1ccc(-c2ccc3ncc(Cc4ccc5ncccc5c4)n3n2)cc1 [Example 30, 6-(6-Phenyl-imidazo[1,2-b]pyridazin-3-ylmethyl)-quinoline]  91 nM
18. Cn1cc(-c2ccc3ncc(Cc4ccc5ncc(C#N)n5c4)n3n2)cn1 [Example 302, 6-[6-(1-Methyl-1H-pyrazol-4-yl)-imidazo[1,2-b]pyridazin-3-ylmethyl]-imidazo[1,2-a]pyridine-3-carbonitrile]  94 nM
19. CN1CCC(n2cc(-c3ccc4ncc(Cc5ccc6ncccc6c5Cl)n4n3)cn2)CC1 [Example 228, 5-Chloro-6-{6-[1-(1-methyl-piperidin-4-yl)-1H-pyrazol-4-yl]-imidazo[1,2-b]pyridazin-3-ylmethyl}-quinoline]  99 nM
20. Cn1cc(-c2ccc3ncc(C4(c5ccc6ncccc6c5)CC4)n3n2)cn1 [Example 163, 6-{1-[6-(1-Methyl-1H-pyrazol-4-yl)-imidazo[1,2-b]pyridazin-3-yl]-cyclopropyl}-quinoline]  110 nM
21. Cn1cc(-c2ccc3ncc(Cc4c(F)cc5c(cnn5C)c4F)n3n2)cn1 [Example 284, 3-(4,6-Difluoro-1-methyl-1H-indazol-5-ylmethyl)-6-(1-methyl-1H-pyrazol-4-yl)-imidazo[1,2-b]pyridazine]  150 nM
22. Cn1cc(-c2ccc3ncc(C(O)c4ccc5nccn5c4)n3n2)cn1 (racemic) [Example 9, (rac)-Imidazo[1,2-a]pyridin-6-yl-[6-(1-methyl-1H-pyrazol-4-yl)-imidazo[1,2-b]pyridazin-3-yl]-methanol]  170 nM
23. CC(c1ccc2c(c1)CCCN2)c1cnc2ccc(-c3cnn(C)c3)nn12 (racemic) [Example 156, (rac)-6-{1-[6-(1-Methyl-1H-pyrazol-4-yl)-imidazo[1,2-b]pyridazin-3-yl]-ethyl}-1,2,3,4-tetrahydroquinoline]  190 nM
24. Clc1cccc(Sc2ccc3ncc(Cc4ccc5ncccc5c4)n3n2)c1 [Example 112, 6-[6-(3-Chloro-phenylsulfanyl)-imidazo[1,2-b]pyridazin-3-ylmethyl]-quinoline]  220 nM
25. COc1cccc(Nc2ccc3ncc(Cc4ccc5ncccc5c4)n3n2)c1 [Example 140, (3-Methoxy-phenyl)-(3-quinolin-6-ylmethyl-imidazo[1,2-b]pyridazin-6-yl)-amine]  310 nM
26. Cn1cc(-c2ccc3ncc(Cc4ccc5ncc(-c6cnn(C)c6)n5c4)n3n2)cn1 [Example 307, 6-(1-Methyl-1H-pyrazol-4-yl)-3-[3-(1-methyl-1H-pyrazol-4-yl)-imidazo[1,2-a]pyridin-6-ylmethyl]-imidazo[1,2-b]pyridazine]  320 nM
27. c1cnc2ccc(Cc3cnc4ccc(-c5cncc6ccccc56)nn34)cc2c1 [Example 42, 6-(6-Isoquinolin-4-yl-imidazo[1,2-b]pyridazin-3-ylmethyl)-quinoline]  450 nM
28. CC(Nc1ccc2ncc(Cc3ccc4ncccc4c3)n2n1)c1ccccc1 (stereo not drawn) [Example 103, (1-Phenyl-ethyl)-(3-quinolin-6-ylmethyl-imidazo[1,2-b]pyridazin-6-yl)-amine]  550 nM
29. c1cn2cc(Cc3cnc4ccc(-c5cnn(C6CCNCC6)c5)nn34)ccc2n1 [Example 291, 3-Imidazo[1,2-a]pyridin-6-ylmethyl-6-(1-piperidin-4-yl-1H-pyrazol-4-yl)-imidazo[1,2-b]pyridazine]  590 nM
30. Cn1cc(-c2ccc3ncc(C(O)c4ccc5nccnc5c4)n3n2)cn1 (racemic) [Example 11, (rac)-[6-(1-Methyl-1H-pyrazol-4-yl)-imidazo[1,2-b]pyridazin-3-yl]-quinoxalin-6-yl-methanol]  910 nM
